# Publication PMC8197800, “Structure and Dynamics of Meprin β in Complex with a Hydroxamate-Based Inhibitor” (International Journal of Molecular Sciences, 2021)
# Read-outs that look alike come from different tables or passages of the source.
# Key:
# [1] = molecular target: T1, Meprin β (Homo sapiens, UniProt Q16820); test: Meprin β enzyme inhibition (cleavage of quenched fluorogenic peptide Abz-YVAEAPK(Dnp)G-OH); type: biochemical
# T1 construct: For the purified, truncated variant Meprin β^62–595 (MβΔC), despite reduced protein yield, identical specific activity was detected; His-tag (N, cleaved yes); made in house; host or cells: Pichia pastoris
# T1 sequence (Q16820 62-595): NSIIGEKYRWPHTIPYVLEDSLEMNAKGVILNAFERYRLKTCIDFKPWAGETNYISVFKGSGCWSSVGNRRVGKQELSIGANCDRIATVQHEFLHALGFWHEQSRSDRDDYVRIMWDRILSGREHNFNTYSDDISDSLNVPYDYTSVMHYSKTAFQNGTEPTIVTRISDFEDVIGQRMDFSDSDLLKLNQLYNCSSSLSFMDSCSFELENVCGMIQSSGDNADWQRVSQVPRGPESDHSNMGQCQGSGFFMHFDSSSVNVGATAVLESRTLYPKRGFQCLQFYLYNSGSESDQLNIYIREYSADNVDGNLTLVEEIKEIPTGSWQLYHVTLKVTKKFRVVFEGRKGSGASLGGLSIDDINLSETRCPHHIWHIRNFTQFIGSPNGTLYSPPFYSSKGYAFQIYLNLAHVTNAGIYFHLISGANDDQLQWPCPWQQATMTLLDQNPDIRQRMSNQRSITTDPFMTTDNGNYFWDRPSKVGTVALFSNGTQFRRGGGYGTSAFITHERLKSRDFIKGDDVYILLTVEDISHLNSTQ
# Protocol: The enzymatic activity of Meprin β was determined, essentially as described previously. The assay is based on the change of fluorescence intensity due to cleavage of the internally quenched peptide substrate Abz-YVAEAPK(Dnp)G-OH (λex 340 nm/λem 420 nm). For activity determination during expression and purification, the proenzyme was activated by trypsin. For activation, 100 µL of cleavage buffer (50 mM Tris/HCl, 10 mM CaCl2, pH 7.5), 50 µL Meprin β solution and 50 µL bovine trypsin 500 µg/mL (Sigma Aldrich) were mixed and incubated for 15 min at 30 °C. An aliquot of the reaction (50 µL) was mixed again with 150 µL assay buffer consisting of 40 mM Tris/HCl, pH 8.0, 0.05% Brij 30. The reaction was initiated by addition of 50 µL of substrate (final concentration 50 µM), which was dissolved in assay buffer.
# [2] = molecular target: T2, Meprin β62–595 (MβΔC) (Homo sapiens, UniProt Q16820); test: Isothermal titration calorimetry (ITC) of inhibitors to Meprin β62–595 (MβΔC); type: binding; set-up: H (one-site fit) / S (one-site fit): unit not given here; settings: for H (one-site fit) / K (association constant, one-site fit) / N (stoichiometry, one-site fit) / S (one-site fit): ITC fit; for Kd / ΔH (binding enthalpy) / −ΔS * T (binding entropy term): ITC, 30 °C
# T2 construct: His-tag (N, cleaved yes); α-mating factor secretion signal (S. cerevisiae) (N, cleaved yes); made in house; host or cells: Pichia pastoris X33
# T2 sequence (Q16820 62-595): T1 sequence (Q16820 62-595)
# Protocol: The binding affinity (KD), binding enthalpy (ΔH), binding entropy (ΔS) and stoichiometry (N) of different Meprin β inhibitors to Meprin β^62–595 (MβΔC) were determined by isothermal titration of the inhibitors to the enzyme at 30 °C using a VP-ITC microcalorimeter (MicroCal). Prior to the binding analysis, the purified Meprin β^62–595 (MβΔC) was dialyzed extensively against 40 mM Tris pH 8.0 (±150 mM NaCl). The inhibitors were diluted 1:50 from DMSO stock solutions into dialysis buffer and 2% (v/v) DMSO were added to the dialyzed enzyme solution immediately before starting the titration experiment. The instrument was operated according to the manufacturer’s instructions and the data analyzed using MicroCal ORIGIN software. The obtained binding heat was corrected by the dilution heat of the ligand, which was recorded by titration of the inhibitor (1:50 diluted) into the dialysis buffer containing 2% (v/v) DMSO. The corrected data were evaluated by a single-site binding model calculating N, KD, ΔH and ΔS.
# 1. MWT-S-270 (-NaCl) 2. MWT-S-270 (+ NaCl)
# Figure S7: ITC binding curves for the titration of Meprin β62-595 (MβΔC) with different inhibitors. […]
# [3] = molecular target: T2, Meprin β62–595 (MβΔC); test: Proteolytic stability of concentrated Meprin β62–595 (MβΔC) with inhibitor, SDS-PAGE; settings: 15 °C; for stability of Meprin β62–595 (MβΔC) with inhibitor added: SDS-PAGE; for degradation of Meprin β62–595 (MβΔC) on addition of inhibitor: up to 15 days, molar ratio 1:1.3 (actinonin), 1:1.2 (MWT-S-270)
# Protocol: For reduction of potential heterogeneity, flexible glycosyl chains were removed by deglycosylation. The influence of different detergents and protein concentrations on the deglycosylation and stability of the enzyme has been investigated and analyzed by SDS-PAGE. […] To prevent degradation, the non-specific Meprin β inhibitor actinonin or the specific Meprin β inhibitor MWT-S-270 was added to the protein solution in a molar ratio of 1:1.3 and 1:1.2, respectively.
# For the removal of surface-exposed glycosyl chains, a deglycosylation was performed prior to crystallization.
# (MβΔC) before and after deglycosylation by EndoH under native conditions.
# (1 picture or pasted object on this page, not shown here)
# [4] = system: Meprin α; settings: cited from earlier work
# [5] = 40 mM Tris pH 8.0 (no NaCl), read-out: Ki
Structure (SMILES),"H (one-site fit) ([2]; Figure S7, -NaCl)","K (association constant, one-site fit) ([2]; Figure S7, -NaCl)","N (stoichiometry, one-site fit) ([2]; Figure S7, -NaCl)","S (one-site fit) ([2]; Figure S7, -NaCl)",Kd ([2]; 40 mM Tris pH 8.0 (no NaCl)),ΔH (binding enthalpy) ([2]; 40 mM Tris pH 8.0 (no NaCl)),−ΔS * T (binding entropy term) ([2]; 40 mM Tris pH 8.0 (no NaCl)),stability of Meprin β62–595 (MβΔC) with inhibitor added [3],degradation of Meprin β62–595 (MβΔC) on addition of inhibitor [3],IC50 ([1]; 40 mM Tris pH 8.0 (no NaCl)),"Ki [1, 5]",also measured
"O=C(CN(Cc1cccc(C(=O)O)c1)Cc1cccc(C(=O)O)c1)NO [1 (270), 3-[[(3-Carboxyphenyl)methyl-[2-(hydroxyamino)-2-oxoethyl]amino]methyl]benzoic acid]",-3884 ±41.29,6.31E7 ±1.05E7,0.939 ±0.00648,22.9,16 nM,-3.884 kcal/mol,-6.939 kcal/mol,at least 15 days,prevented,,,"IC50 ([1]; 150 mM NaCl, 40 mM Tris pH 8.0): 176 nM; Ki ([1]; 150 mM NaCl, 40 mM Tris pH 8.0, read-out: Ki): 198 nM; Ki ([1]; Ki, 40 mM Tris pH 8.0 (no NaCl)): 28.6 nM; H (one-site fit) ([2]; Figure S7, + NaCl): -4554 ±133,1; K (association constant, one-site fit) ([2]; Figure S7, + NaCl): 2,50E6 ±5,30E5; N (stoichiometry, one-site fit) ([2]; Figure S7, + NaCl): 1,13 ±0,0246; S (one-site fit) ([2]; Figure S7, + NaCl): 14,2; Kd ([2]; 150 mM NaCl, 40 mM Tris pH 8.0): 400 nM; ΔH (binding enthalpy) ([2]; 150 mM NaCl, 40 mM Tris pH 8.0): -4.554 kcal/mol; −ΔS * T (binding entropy term) ([2]; 150 mM NaCl, 40 mM Tris pH 8.0): -4.303 kcal/mol; IC50 ([4]; read-out: IC50 towards Meprin α): 16000 nM; stronger inhibition of Meprin β in comparison to Meprin α ([4]; selectivity Meprin β over Meprin α): more than 100 fold"
O=C(CN(Cc1cccc(C(=O)O)c1)Cc1ccc2c(c1)OCO2)NO [2 (416)],"-3966 ±57,47","4,21E6 ±6,18E5","1,06 ±0,0110","17,2",237 nM,-3.966 kcal/mol,-5.212 kcal/mol,,,285 nM,192 nM,
O=C(CN(Cc1ccccc1)Cc1cccc(C(=O)O)c1)NO [3 (396)],-1138 ±32.08,1.34E6 ±2.22E5,1.09 ±0.0225,24.3,746 nM,-1.138 kcal/mol,-7.363 kcal/mol,,,1280 nM,1390 nM,
"CCCCC[C@H](CC(=O)NO)C(=O)N[C@H](C(=O)N1CCC[C@H]1CO)C(C)C [actinonin, reference compound]",,,,,,,,at least 15 days,prevented,,,
